Measured values: PubChem BioAssay AID2060886 (Molecular Pharmacology Branch, DTP, NCI, 2025)

System: 653999-131-R-J2-PDC complex spheroids, growth inhibition
Experiment: Anticancer human tumor 653999-131-R-J2-PDC patient-derived lung adenocarcinoma cell line growth inhibition [RAS]
Conditions: for IC50: curve of first compound; for viability, T/C: stronger effect = lower value; active means viability on the fitted dose curve at most 10% of control; inactive means the rest
In short: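 Multi-cell-type spheroids: tumor cells plus HUVEC endothelial cells and mesenchymal stem cells. RAS-pathway inhibitors were combined with targeted agents, each dosed in half-log steps down from clinical Cmax, or from 10 microM when Cmax was unknown.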
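Further: spheroids exposed to the agents for seven days before the readout.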

C=CC(=O)Nc1cc(Nc2nccc(-c3cn(C)c4ccccc34)n2)c(OC)cc1N(C)CCN(C)C + C=CC(=O)N1CCN(c2nc(OCC3CCCN3C)nc3c(F)c(-c4nc(N)cc(C)c4C(F)(F)F)c(Cl)cc23)C(C)C1
> 1000 nM: IC50 (second compound 0.01 µM) | IC50 (second compound 0.0316 µM) | IC50 (second compound 0.1 µM) | IC50 (second compound 1 µM)
838 nM: IC50 (second compound 0.00316 µM)
inactive: viability, T/C (second compound 0.00316 µM, first compound 0.00316 µM) 104% | viability, T/C (second compound 0.00316 µM, first compound 0.01 µM) 90.8% | viability, T/C (second compound 0.00316 µM, first compound 0.0316 µM) 95.3% | viability, T/C (second compound 0.00316 µM, first compound 0.1 µM) 94.9% | viability, T/C (second compound 0.00316 µM, first compound 0.316 µM) 70.3% | viability, T/C (second compound 0.00316 µM, first compound 1 µM) 46.3% | viability, T/C (second compound 0.01 µM, first compound 0.00316 µM) 94.1% | viability, T/C (second compound 0.01 µM, first compound 0.01 µM) 83.7% | viability, T/C (second compound 0.01 µM, first compound 0.0316 µM) 79.5% | viability, T/C (second compound 0.01 µM, first compound 0.1 µM) 100% | viability, T/C (second compound 0.01 µM, first compound 0.316 µM) 57.9% | viability, T/C (second compound 0.01 µM, first compound 1 µM) 56% | viability, T/C (second compound 0.0316 µM, first compound 0.00316 µM) 113% | viability, T/C (second compound 0.0316 µM, first compound 0.01 µM) 100% | viability, T/C (second compound 0.0316 µM, first compound 0.0316 µM) 95.3% | viability, T/C (second compound 0.0316 µM, first compound 0.1 µM) 69.6% | viability, T/C (second compound 0.0316 µM, first compound 0.316 µM) 59.2% | viability, T/C (second compound 0.0316 µM, first compound 1 µM) 59.4% | viability, T/C (second compound 0.1 µM, first compound 0.00316 µM) 108% | viability, T/C (second compound 0.1 µM, first compound 0.01 µM) 86.8% | viability, T/C (second compound 0.1 µM, first compound 0.0316 µM) 89.5% | viability, T/C (second compound 0.1 µM, first compound 0.1 µM) 77.5% | viability, T/C (second compound 0.1 µM, first compound 0.316 µM) 69.6% | viability, T/C (second compound 0.1 µM, first compound 1 µM) 52.7% | viability, T/C (second compound 0.316 µM, first compound 0.00316 µM) 100% | viability, T/C (second compound 0.316 µM, first compound 0.01 µM) 107% | viability, T/C (second compound 0.316 µM, first compound 0.0316 µM) 98.8% | viability, T/C (second compound 0.316 µM, first compound 0.1 µM) 70.8% | viability, T/C (second compound 0.316 µM, first compound 0.316 µM) 67.7% | viability, T/C (second compound 0.316 µM, first compound 1 µM) 46% | viability, T/C (second compound 1 µM, first compound 0.00316 µM) 105% | viability, T/C (second compound 1 µM, first compound 0.01 µM) 104% | viability, T/C (second compound 1 µM, first compound 0.0316 µM) 94.2% | viability, T/C (second compound 1 µM, first compound 0.1 µM) 67% | viability, T/C (second compound 1 µM, first compound 0.316 µM) 58.6% | viability, T/C (second compound 1 µM, first compound 1 µM) 55.9%
894 nM: IC50 (second compound 0.316 µM)

CC1(C)CCC(Nc2ncc(C(F)(F)F)c(-c3c[nH]c4c(P(C)(C)=O)c(C#N)ccc34)n2)CN1 (centres undefined) + CCn1c(-c2cc(N3CCN(C)CC3)cnc2C(C)OC)c2c3cc(ccc31)-c1csc(n1)CC(NC(=O)C1CC1C)C(=O)N1CCCC(N1)C(=O)OCC(C)(C)C2
inactive: viability, T/C (second compound 0.000949 µM, first compound 0.000949 µM) 60.9% | viability, T/C (second compound 0.000949 µM, first compound 0.003 µM) 58.4% | viability, T/C (second compound 0.000949 µM, first compound 0.00949 µM) 56.4% | viability, T/C (second compound 0.000949 µM, first compound 0.03 µM) 45.1% | viability, T/C (second compound 0.000949 µM, first compound 0.0949 µM) 56.4% | viability, T/C (second compound 0.000949 µM, first compound 0.3 µM) 61.2% | viability, T/C (second compound 0.003 µM, first compound 0.000949 µM) 51% | viability, T/C (second compound 0.003 µM, first compound 0.003 µM) 41.6% | viability, T/C (second compound 0.003 µM, first compound 0.00949 µM) 40.8% | viability, T/C (second compound 0.003 µM, first compound 0.03 µM) 44.7% | viability, T/C (second compound 0.003 µM, first compound 0.0949 µM) 41.1% | viability, T/C (second compound 0.003 µM, first compound 0.3 µM) 38.2% | viability, T/C (second compound 0.00949 µM, first compound 0.000949 µM) 35.9% | viability, T/C (second compound 0.00949 µM, first compound 0.003 µM) 24.3% | viability, T/C (second compound 0.00949 µM, first compound 0.00949 µM) 21.4% | viability, T/C (second compound 0.00949 µM, first compound 0.03 µM) 21.6% | viability, T/C (second compound 0.00949 µM, first compound 0.0949 µM) 27.6% | viability, T/C (second compound 0.00949 µM, first compound 0.3 µM) 22.3% | viability, T/C (second compound 0.03 µM, first compound 0.000949 µM) 17.8% | viability, T/C (second compound 0.03 µM, first compound 0.003 µM) 18.3% | viability, T/C (second compound 0.03 µM, first compound 0.00949 µM) 17.4% | viability, T/C (second compound 0.03 µM, first compound 0.03 µM) 13.4% | viability, T/C (second compound 0.03 µM, first compound 0.0949 µM) 15.9% | viability, T/C (second compound 0.03 µM, first compound 0.3 µM) 16.5% | viability, T/C (second compound 0.0949 µM, first compound 0.000949 µM) 16.4% | viability, T/C (second compound 0.0949 µM, first compound 0.003 µM) 17.8% | viability, T/C (second compound 0.0949 µM, first compound 0.00949 µM) 14.5% | viability, T/C (second compound 0.0949 µM, first compound 0.03 µM) 14.4% | viability, T/C (second compound 0.0949 µM, first compound 0.0949 µM) 14.1% | viability, T/C (second compound 0.0949 µM, first compound 0.3 µM) 16.3% | viability, T/C (second compound 0.3 µM, first compound 0.000949 µM) 14.5% | viability, T/C (second compound 0.3 µM, first compound 0.003 µM) 15.2% | viability, T/C (second compound 0.3 µM, first compound 0.00949 µM) 14.7% | viability, T/C (second compound 0.3 µM, first compound 0.03 µM) 14.8% | viability, T/C (second compound 0.3 µM, first compound 0.0949 µM) 13.7% | viability, T/C (second compound 0.3 µM, first compound 0.3 µM) 15.7%
< 0.949 nM: IC50 (second compound 0.003 µM) | IC50 (second compound 0.00949 µM) | IC50 (second compound 0.03 µM) | IC50 (second compound 0.0949 µM) | IC50 (second compound 0.3 µM)
> 300 nM: IC50 (second compound 0.000949 µM)
